Data taken from patent publication US7462625B2, “Gonadotropin-releasing hormone receptor antagonists and methods relating thereto” (Neurocrine Biosciences, Inc., priority 2000, dated 2008).
Where two headings read alike, the source gives them in different places.

Target: T1, GnRH receptor (Homo sapiens, UniProt P30968)
T1 construct: expressed in transfected cells
T1 sequence (P30968 1-328): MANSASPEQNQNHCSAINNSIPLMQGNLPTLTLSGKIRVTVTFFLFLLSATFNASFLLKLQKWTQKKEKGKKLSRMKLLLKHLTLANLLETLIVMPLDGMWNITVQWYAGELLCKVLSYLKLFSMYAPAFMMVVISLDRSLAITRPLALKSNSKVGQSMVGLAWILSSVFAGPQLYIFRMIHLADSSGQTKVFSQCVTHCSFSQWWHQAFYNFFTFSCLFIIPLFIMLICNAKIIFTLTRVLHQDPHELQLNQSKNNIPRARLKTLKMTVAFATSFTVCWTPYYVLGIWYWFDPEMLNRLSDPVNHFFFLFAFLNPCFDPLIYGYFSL
Assay: GnRH receptor membrane binding assay
Protocol: Radio-Iodination of GnRH Peptide
The GnRH analog is labeled by the chloramine-T method. […] The reaction is stopped by the addition of 60 μg sodium metabisulfite and the free iodine is removed by passing the iodinated mixture through a C-8 Sep-Pak cartridge (Millipore Corp., Milford, Mass.). The peptide is eluted with a small volume of 80% acetonitrile/water. […] The purified radioactive peptide is stored in 0.1% BSA/20% acetonitrile/0.1% TFA at −80° C. and can be used for up to 4 weeks.
GnRH Receptor Membrane Binding Assay
Cells stably, or transiently, transfected with GnRH receptor expression vectors are harvested, resuspended in 5% sucrose and homogenized using a polytron homogenizer (2×15 sec). Nucleii are removed by centrifugation (3000×g for 5 min.), and the supernatant centrifuged (20,000×g for 30 min, 4° C.) to collect the membrane fraction. The final membrane preparation is resuspended in binding buffer (10 mM Hepes (pH 7.5), 150 mM NaCl, and 0.1% BSA) and stored at −70° C. Binding reactions are performed in a Millipore MultiScreen 96-well filtration plate assembly with polyethylenimine coated GF/C membranes. […] The reaction is terminated after 90 minutes by application of vacuum and washing (2×) with phosphate buffered saline. Bound radioactivity is measured using 96-well scintillation counting (Packard Topcount) or by removing the filters from the plate and direct gamma counting. Ki values are calculated from competition binding data using non-linear least squares regression using the Prism software package (GraphPad Software).

[1] = GnRH receptor membrane binding assay, [125I]-labeled GnRH peptide, read-out: Ki

Row | SMILES | Ki [1] | Ki
1 | Cc1ccc(-c2c(C)n(Cc3c(F)cccc3F)c(=O)n(C[C@H](N)c3ccccc3)c2=O)s1 [8-106] | < 0.1 µM | –
2 | Cc1c(-c2cccs2)c(=O)n(C[C@H](N)c2ccccc2)c(=O)n1Cc1c(F)cccc1F [8-107] | < 0.1 µM | –
3 | CCNC(=O)[C@@H]1CCCN1CCn1c(=O)c(-c2cccc(OC)c2)c(C)n(Cc2c(F)cccc2F)c1=O [9-3] | < 0.1 µM | –
4 | COc1cccc(-c2c(C)n(Cc3c(F)cccc3F)c(=O)n(CCN3CCC[C@@H]3CO)c2=O)c1 [9-4] | < 0.1 µM | –
5 | COc1cccc(-c2c(C)n(Cc3c(F)cccc3F)c(=O)n(CCN3CC[C@@H](NC(C)=O)C3)c2=O)c1 [9-7] | < 0.1 µM | –
6 | COc1cccc(-c2c(C)n(Cc3c(F)cccc3F)c(=O)n(CC(C)NCCCOCC(C)C)c2=O)c1 (centres unmarked) [9-19] | < 0.1 µM | –
7 | COc1cccc(-c2c(C)n(Cc3c(F)cccc3F)c(=O)n(CCN(C)CCc3ccccn3)c2=O)c1F [9-24] | – | < 0.1 µM
8 | COc1cccc(-c2c(C)n(Cc3c(F)cccc3F)c(=O)n(CC3CCCN3)c2=O)c1 (centres unmarked) [9-26] | < 0.1 µM | –
9 | Cc1c(-c2ccc(Oc3ccccc3)cc2)c(=O)n(CCNCc2cc(C(F)(F)F)cc(C(F)(F)F)c2)c(=O)n1Cc1c(F)cccc1F [9-32] | < 0.1 µM | –
10 | Cc1c(-c2ccc(Oc3ccccc3)cc2)c(=O)n(CCN2CCN(Cc3ccc4c(c3)OCO4)CC2)c(=O)n1Cc1c(F)cccc1F [9-35] | < 0.1 µM | –
11 | Cc1c(-c2ccc(Oc3ccccc3)cc2)c(=O)n(CCN2CCCC(C(N)=O)C2)c(=O)n1Cc1c(F)cccc1F (centres unmarked) [9-37] | < 0.1 µM | –
12 | Cc1c(-c2ccc(Oc3ccccc3)cc2)c(=O)n(CCN(Cc2ccccc2)Cc2ccccc2)c(=O)n1Cc1c(F)cccc1F [9-39] | < 0.1 µM | –
13 | Cc1c(-c2ccc(Oc3ccccc3)cc2)c(=O)n(CCN2CCN(c3cccc(Cl)c3)CC2)c(=O)n1Cc1c(F)cccc1F [9-40] | < 0.1 µM | –
14 | Cc1c(-c2ccc(Oc3ccccc3)cc2)c(=O)n(CCN2CC[C@@H](NC(=O)C(F)(F)F)C2)c(=O)n1Cc1c(F)cccc1F [9-42] | < 0.1 µM | –
15 | Cc1c(-c2ccccc2F)c(=O)n(CCN2CCN(c3cccc(Cl)c3)CC2)c(=O)n1Cc1c(F)cccc1F [9-56] | < 0.1 µM | –
16 | Cc1c(-c2ccccc2F)c(=O)n(CCN2CCN(C(=O)OCc3ccccc3)CC2)c(=O)n1Cc1c(F)cccc1F [9-58] | < 0.1 µM | –
17 | Cc1c(-c2ccc3c(c2)OCO3)c(=O)n(CCNCc2cc(C(F)(F)F)cc(C(F)(F)F)c2)c(=O)n1Cc1c(F)cccc1F [9-63] | < 0.1 µM | –
18 | Cc1c(-c2ccc3c(c2)OCO3)c(=O)n(CCNCCN(C(C)C)C(C)C)c(=O)n1Cc1c(F)cccc1F [9-64] | < 0.1 µM | –
19 | Cc1c(-c2ccc3c(c2)OCO3)c(=O)n(CCN2CCN(c3cccc(Cl)c3)CC2)c(=O)n1Cc1c(F)cccc1F [9-70] | < 0.1 µM | –
20 | Cc1c(-c2ccc(C(C)C)cc2)c(=O)n(CCN2CCN(c3cccc(Cl)c3)CC2)c(=O)n1Cc1c(F)cccc1F [9-85] | < 0.1 µM | –
21 | CCCN(CCn1c(=O)c(-c2ccc(C(C)C)cc2)c(C)n(Cc2c(F)cccc2F)c1=O)C(C)CC (centres unmarked) [9-86] | < 0.1 µM | –

Row | SMILES | Ki [1] | Ki
22 | Cc1c(-c2ccc3c(c2)OCCO3)c(=O)n(CCN2CCN(Cc3ccc4c(c3)OCO4)CC2)c(=O)n1Cc1c(F)cccc1F [9-95] | < 0.1 µM | –
23 | Cc1c(-c2ccc3c(c2)OCCO3)c(=O)n(CCN2CC(C)OC(C)C2)c(=O)n1Cc1c(F)cccc1F (centres unmarked) [9-96] | < 0.1 µM | –
24 | COc1cccc(-c2c(C)n(Cc3c(F)cccc3F)c(=O)n(CC(C)NCc3ccccn3)c2=O)c1 (centres unmarked) [9-109] | < 0.1 µM | –
25 | CCC(C)NC(=O)[C@@H]1CCCN1CCn1c(=O)c(-c2cccc(OC)c2)c(C)n(Cc2c(F)cccc2F)c1=O (some centres unmarked) [9-112] | < 0.1 µM | –
26 | Cc1c(-c2ccc(Oc3ccccc3)cc2)c(=O)n(CCNCC(F)(F)F)c(=O)n1Cc1c(F)cccc1F [9-138] | < 0.1 µM | –
27 | Cc1c(-c2ccc(Oc3ccccc3)cc2)c(=O)n(CCNCCC(c2ccccc2)c2ccccc2)c(=O)n1Cc1c(F)cccc1F [9-140] | < 0.1 µM | –
28 | Cc1c(-c2ccc(Oc3ccccc3)cc2)c(=O)n(CCNCc2cccc([N+](=O)[O-])c2)c(=O)n1Cc1c(F)cccc1F [9-142] | < 0.1 µM | –
29 | Cc1c(-c2ccc(Oc3ccccc3)cc2)c(=O)n(CCNCc2ccc([N+](=O)[O-])cc2)c(=O)n1Cc1c(F)cccc1F [9-143] | < 0.1 µM | –
30 | Cc1c(-c2ccc(Oc3ccccc3)cc2)c(=O)n(CCNCc2ccc(F)cc2C(F)(F)F)c(=O)n1Cc1c(F)cccc1F [9-145] | < 0.1 µM | –
31 | Cc1c(-c2ccc(Oc3ccccc3)cc2)c(=O)n(CCN2CCN(c3ccccc3)CC2)c(=O)n1Cc1c(F)cccc1F [9-146] | < 0.1 µM | –
32 | Cc1c(-c2ccccc2F)c(=O)n(CCNC2CCC(C)CC2)c(=O)n1Cc1c(F)cccc1F (centres unmarked) [9-149] | < 0.1 µM | –
33 | Cc1c(-c2ccc3c(c2)OCO3)c(=O)n(CCNCC(F)(F)F)c(=O)n1Cc1c(F)cccc1F [9-164] | < 0.1 µM | –
34 | Cc1c(-c2ccc3c(c2)OCCO3)c(=O)n(CCNCC(F)(F)F)c(=O)n1Cc1c(F)cccc1F [9-191] | < 0.1 µM | –
35 | Cc1c(-c2ccc3c(c2)OCCO3)c(=O)n(CCN2CCN(c3ccccc3)CC2)c(=O)n1Cc1c(F)cccc1F [9-199] | < 0.1 µM | –
36 | Cc1c(-c2ccc3c(c2)OCCO3)c(=O)n(CCN(CCC#N)Cc2cccnc2)c(=O)n1Cc1c(F)cccc1F [9-200] | < 0.1 µM | –
37 | COc1ccccc1CCNCCn1c(=O)c(-c2ccc(Oc3ccccc3)cc2)c(C)n(Cc2c(F)cccc2F)c1=O [9-215] | < 0.1 µM | –
38 | Cc1c(-c2ccc(Oc3ccccc3)cc2)c(=O)n(CCN[C@@H](C)c2ccc3ccccc3c2)c(=O)n1Cc1c(F)cccc1F [9-219] | < 0.1 µM | –
39 | CCN(CC)CCn1c(=O)c(-c2ccc(Oc3ccccc3)cc2)c(C)n(Cc2c(F)cccc2F)c1=O [9-224] | < 0.1 µM | –
40 | Cc1ccc(N2CCN(CCn3c(=O)c(-c4ccc(Oc5ccccc5)cc4)c(C)n(Cc4c(F)cccc4F)c3=O)CC2)cc1 [9-225] | < 0.1 µM | –
41 | Cc1c(-c2ccccc2F)c(=O)n(CCNCCN(C)C)c(=O)n1Cc1c(F)cccc1F [9-227] | < 0.1 µM | –
42 | COc1ccc(CCNCCn2c(=O)c(-c3ccccc3F)c(C)n(Cc3c(F)cccc3F)c2=O)cc1OC [9-229] | < 0.1 µM | –

Row | SMILES | Ki [1] | Ki
43 | Cc1c(-c2ccccc2F)c(=O)n(CCN(C)C)c(=O)n1Cc1c(F)cccc1F [9-237] | < 0.1 µM | –
44 | CCCN1CCN(CCn2c(=O)c(-c3ccccc3F)c(C)n(Cc3c(F)cccc3F)c2=O)CC1 [9-240] | < 0.1 µM | –
45 | Cc1c(-c2ccc3c(c2)OCO3)c(=O)n(CCNCCN(C)C)c(=O)n1Cc1c(F)cccc1F [9-242] | < 0.1 µM | –
46 | COc1ccc(CCNCCn2c(=O)c(-c3ccc4c(c3)OCO4)c(C)n(Cc3c(F)cccc3F)c2=O)cc1OC [9-244] | < 0.1 µM | –
47 | Cc1c(-c2ccc3c(c2)OCO3)c(=O)n(CCNCC2CC2)c(=O)n1Cc1c(F)cccc1F [9-245] | < 0.1 µM | –
48 | Cc1c(-c2ccc3c(c2)OCO3)c(=O)n(CCN[C@@H](C)c2ccc3ccccc3c2)c(=O)n1Cc1c(F)cccc1F [9-247] | < 0.1 µM | –
49 | CCN(CC)CCN(C)CCn1c(=O)c(-c2ccc3c(c2)OCO3)c(C)n(Cc2c(F)cccc2F)c1=O [9-249] | < 0.1 µM | –
50 | CCN(CC)CCN(C)CCn1c(=O)c(-c2ccc(C(C)C)cc2)c(C)n(Cc2c(F)cccc2F)c1=O [9-263] | < 0.1 µM | –
51 | Cc1c(-c2ccc3c(c2)OCCO3)c(=O)n(CCNCCN(C)C)c(=O)n1Cc1c(F)cccc1F [9-270] | < 0.1 µM | –
52 | Cc1c(-c2ccc3c(c2)OCCO3)c(=O)n(CCN[C@@H](C)c2ccc3ccccc3c2)c(=O)n1Cc1c(F)cccc1F [9-275] | < 0.1 µM | –
53 | Cc1ccc(N2CCN(CCn3c(=O)c(-c4ccc5c(c4)OCCO5)c(C)n(Cc4c(F)cccc4F)c3=O)CC2)cc1 [9-281] | < 0.1 µM | –
54 | Cc1c(/C=C/c2ccccc2)c(=O)n(CCN(C)CCc2ccccn2)c(=O)n1Cc1c(F)cccc1F [9-287] | < 0.1 µM | –
55 | COc1cccc(-c2c(C)n(Cc3c(F)cccc3F)c(=O)n(C[C@H](C)NCc3ccccc3)c2=O)c1F [9-304] | < 0.1 µM | –
56 | COc1cccc(-c2c(C)n(Cc3c(F)cccc3F)c(=O)n(C[C@H](C)N(C)Cc3ccccc3)c2=O)c1F [9-305] | < 0.1 µM | –
57 | COc1cccc(-c2c(C)n(Cc3c(F)cccc3F)c(=O)n([C@H](C)CNCc3ccccc3)c2=O)c1 [9-312] | < 0.1 µM | –
58 | COc1cccc(-c2c(C)n(Cc3c(F)cccc3F)c(=O)n(C[C@@H](C)N(C)CCc3ccccn3)c2=O)c1 [9-318] | < 0.1 µM | –
59 | Cc1c(-c2ccc3c(c2)OCO3)c(=O)n(CCNC2CCC(C)CC2)c(=O)n1Cc1c(F)cccc1F (centres unmarked) [9-320] | < 0.1 µM | –
60 | Cc1c(-c2ccc3c(c2)OCO3)c(=O)n(CCN2CCN(c3cccc(C(F)(F)F)c3)CC2)c(=O)n1Cc1c(F)cccc1F [9-361] | < 0.1 µM | –
61 | CCOC(=O)N1CCN(CCn2c(=O)c(-c3ccc4c(c3)OCO4)c(C)n(Cc3c(F)cccc3F)c2=O)CC1 [9-362] | < 0.1 µM | –
62 | COc1cccc(-c2c(C)n(Cc3c(F)cccc3F)c(=O)n(CC(C)NC(C)C(C)C)c2=O)c1F (centres unmarked) [9-399] | < 0.1 µM | –
